From patent publication US5665704A, “Receptor specific atrial natriuretic peptides” (Genentech, Inc., priority 1995, dated 1997)
Read-outs that look alike come from different tables or passages of the source. Values belong to the compound of their own block, whether it stands above or below them. Bridge positions count the residues as written; N and C are the ends. Square brackets hold non-standard residues; d marks the D form. Peptide text beside a SMILES is read from it. ξ: configuration not given here. ξPhg = NC(C(=O)O)c1ccccc1; Mpa = O=C(O)CCS

Columns and labels:
hNPR-C = biological target: T1, hNPR-C (Homo sapiens, UniProt P17342); test: Binding affinity for clearance receptor hNPR-C
T1 sequence (P17342 27-541): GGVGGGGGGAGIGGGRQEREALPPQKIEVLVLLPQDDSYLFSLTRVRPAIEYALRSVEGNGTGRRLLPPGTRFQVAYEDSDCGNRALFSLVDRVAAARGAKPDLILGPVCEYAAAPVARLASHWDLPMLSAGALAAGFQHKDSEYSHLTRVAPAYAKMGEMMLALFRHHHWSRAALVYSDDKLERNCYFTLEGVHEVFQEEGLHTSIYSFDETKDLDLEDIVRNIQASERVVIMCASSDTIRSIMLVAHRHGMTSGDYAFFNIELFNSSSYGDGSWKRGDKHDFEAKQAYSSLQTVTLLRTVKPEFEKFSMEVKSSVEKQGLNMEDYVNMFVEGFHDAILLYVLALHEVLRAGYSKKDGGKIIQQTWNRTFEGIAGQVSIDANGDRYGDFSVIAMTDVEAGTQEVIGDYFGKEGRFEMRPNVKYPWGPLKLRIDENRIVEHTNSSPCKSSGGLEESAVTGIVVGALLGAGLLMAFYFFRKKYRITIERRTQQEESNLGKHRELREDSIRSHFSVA
Text: For assay systems to measure binding of hANF and the compounds of this invention to hNPR-C see: Schank, D. B., et al., Biochem. Biophys. Res. Comm. 127:433-442 (1985); Scarborough, R. M., J. Biol. Chem. 261:12960-12964 and WO 90/01940.

hNPR-A = biological target: T2, hNPR-A (Homo sapiens, UniProt P16066); test: Binding affinity for hNPR-A (competitive displacement of I^125 labeled wild-type ANF)
T2 sequence (P16066 33-1061): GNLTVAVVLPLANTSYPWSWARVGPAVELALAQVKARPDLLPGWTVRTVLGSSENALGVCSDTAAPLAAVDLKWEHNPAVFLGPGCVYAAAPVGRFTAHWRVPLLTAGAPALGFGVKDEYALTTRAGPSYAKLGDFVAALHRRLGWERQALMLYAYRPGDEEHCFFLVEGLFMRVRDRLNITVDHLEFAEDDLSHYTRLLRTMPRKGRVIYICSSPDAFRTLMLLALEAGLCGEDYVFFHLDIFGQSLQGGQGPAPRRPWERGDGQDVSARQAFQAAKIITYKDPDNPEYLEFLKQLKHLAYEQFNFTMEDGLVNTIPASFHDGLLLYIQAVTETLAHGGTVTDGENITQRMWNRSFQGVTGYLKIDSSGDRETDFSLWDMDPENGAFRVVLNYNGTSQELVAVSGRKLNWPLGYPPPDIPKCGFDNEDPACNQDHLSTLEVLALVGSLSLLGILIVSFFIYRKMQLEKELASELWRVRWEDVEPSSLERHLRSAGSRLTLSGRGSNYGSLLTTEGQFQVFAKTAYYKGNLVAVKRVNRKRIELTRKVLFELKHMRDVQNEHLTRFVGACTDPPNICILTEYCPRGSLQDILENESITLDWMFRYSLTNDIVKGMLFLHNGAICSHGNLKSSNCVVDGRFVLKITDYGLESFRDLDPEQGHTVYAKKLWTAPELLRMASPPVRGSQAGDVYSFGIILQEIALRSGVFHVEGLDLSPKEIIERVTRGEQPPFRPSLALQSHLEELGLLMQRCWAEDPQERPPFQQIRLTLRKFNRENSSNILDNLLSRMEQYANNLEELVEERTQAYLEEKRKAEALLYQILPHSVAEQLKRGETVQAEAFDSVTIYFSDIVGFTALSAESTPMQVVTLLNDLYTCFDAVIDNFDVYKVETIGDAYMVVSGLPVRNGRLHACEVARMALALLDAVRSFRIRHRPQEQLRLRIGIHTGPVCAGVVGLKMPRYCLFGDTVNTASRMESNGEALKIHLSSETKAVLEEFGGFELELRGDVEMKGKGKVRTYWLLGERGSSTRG

[1] = biological target: T3, Human endopeptidase 24.11 (hNEP) (Homo sapiens, UniProt P08473); test: Degradation of ANF variants by human NEP, half-life by HPLC (Example 22)
T3 sequence (P08473 whole entry): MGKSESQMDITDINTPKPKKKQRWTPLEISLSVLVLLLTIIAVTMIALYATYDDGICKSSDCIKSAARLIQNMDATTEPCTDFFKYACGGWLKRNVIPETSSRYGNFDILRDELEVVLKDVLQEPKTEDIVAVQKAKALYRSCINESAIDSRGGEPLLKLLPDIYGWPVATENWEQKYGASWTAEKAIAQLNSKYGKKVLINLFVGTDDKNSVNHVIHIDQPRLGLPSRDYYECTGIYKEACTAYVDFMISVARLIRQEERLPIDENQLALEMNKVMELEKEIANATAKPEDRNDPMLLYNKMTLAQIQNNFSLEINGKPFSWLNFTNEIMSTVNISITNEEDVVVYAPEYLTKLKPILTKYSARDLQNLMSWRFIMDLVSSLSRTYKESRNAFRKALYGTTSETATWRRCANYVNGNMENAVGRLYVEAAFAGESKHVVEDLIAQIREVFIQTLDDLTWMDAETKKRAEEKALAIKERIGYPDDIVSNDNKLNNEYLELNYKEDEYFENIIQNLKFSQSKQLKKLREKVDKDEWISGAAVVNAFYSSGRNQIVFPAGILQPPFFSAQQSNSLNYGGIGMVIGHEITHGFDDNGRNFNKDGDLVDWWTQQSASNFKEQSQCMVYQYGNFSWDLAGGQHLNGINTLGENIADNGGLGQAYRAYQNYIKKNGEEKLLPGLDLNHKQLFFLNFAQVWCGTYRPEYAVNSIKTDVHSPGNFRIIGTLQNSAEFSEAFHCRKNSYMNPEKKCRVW
Procedure: (§1) The half-life of various ANF variants was measured according to the following procedure.
(§2) ANF Solution: An accurately weighed amount of ANF or variant thereof was diluted with HEPES buffer (5 ml of 1M HEPES Buffer and 0.1 ml of Tween 20 diluted to a 100 ml volume with DI water) to make a 0.5 mg/ml solution.
(§3) hNEP/HEPES Solution: 75 μl of a 1 mg/ml solution of hNEP (see U.S. Pat. No. 4,960,700) is dissolved in 992.5 μl of HEPES buffer (as described above) and vortex mixed. The resulting mixture is stored in a silylated Eppendorf tube and periodically checked for activity against an ANF peptide standard.
(§4) Assay conditions: 150 μl of an ANF solution in the HEPES buffer is diluted with 820 μl HEPES buffer and vortex mixed (1 sec). Careful note of the time is taken as 30 μl of the hNEP/HEPES solution is added and the solution is vortex mixed for 1 sec. and analyzed by periodic removal of constant volume aliquots by the HPLC autosampler. A 2.5 cm×50 cm, C-18 reversed-phase column (15 micron, 300Å]) was used and elution was achieved by using a shallow gradient of increasing acetonitrile. The elution conditions consisted of a 10% to 50% acetonitrile (containing 0.1% TFA) gradient at 0.5% min.^-1. The aqueous phase was 0.1% TFA in water. The peak area of the ANP peptide is recorded at these periodic intervals and a half-life is determined from these values.

[2] = biological target: T3, Human endopeptidase 24.11 (hNEP); test: in vitro; conditions: isolated enzyme
Procedure: as §1, §2, §3, §4

SMILES: CC[C@H](C)[C@@H]1NC(=O)[C@H](CCCNC(=N)N)NC(=O)[C@H](CC(=O)O)NC(=O)[C@H]([C@@H](C)CC)NC(=O)[C@H](CCCNC(=N)N)NC(=O)CNC(=O)CNC(=O)[C@H](Cc2ccccc2)NC(=O)[C@@H](NC(=O)[C@H](CO)NC(=O)[C@H](CO)NC(=O)[C@H](CCCNC(=N)N)NC(=O)[C@H](CCCNC(=N)N)NC(=O)[C@H](CC(C)C)NC(=O)[C@H](CO)NC(=O)[C@H](CCCNC(=N)N)NC(=O)[C@@H]2CCCN2C(=O)[C@H](C)NC(=O)[C@@H](N)[C@@H](C)O)CSSC[C@@H](C(=O)N[C@@H](CC(N)=O)C(=O)N[C@@H](CO)C(=O)N[C@@H](Cc2ccccc2)C(=O)N[C@@H](CCCNC(=N)N)C(=O)N[C@@H](Cc2ccc(O)cc2)C(=O)O)NC(=O)CNC(=O)[C@H](CC(C)C)NC(=O)CNC(=O)[C@H](CO)NC(=O)[C@H](CCC(N)=O)NC(=O)[C@H](C)NC(=O)[C@H](CCCNC(=N)N)NC1=O [ANF23] (H-TAPRSLRRSSCFGGRIDRIRAQSGLGCNSFRY-OH; disulfide 11-27)
IC50 (hNPR-C): 4190 pM | IC50 (hNPR-A): 44 pM | Half-Life ([1]; FIG. 6: ANF variants 0.5 mg/ml, endopeptidase 11.24 (NEP) 0.225 mg/ml): 12.3 h

SMILES: CC[C@H](C)[C@@H]1NC(=O)[C@H](CCCNC(=N)N)NC(=O)CNC(=O)CNC(=O)[C@H](Cc2ccccc2)NC(=O)[C@@H](C(C)C)NC(=O)[C@@H](NC(=O)[C@H](CO)NC(=O)[C@@H](N)CO)CSSC[C@@H](C(=O)N[C@@H](Cc2ccccc2)C(=O)N[C@@H](CCCNC(=N)N)C(=O)O)NC(=O)[C@H]([C@@H](C)CC)NC(=O)[C@H](CCCNC(=N)N)NC(=O)[C@H](CC(=O)O)NC1=O [ANF40] (H-SSC[dV]FGGRIDRICFR-OH; disulfide 3-13 (inferred); N-terminus and C-terminus assumed)
half-life at 0.5 mg/ml ([1]; human): 9.95 h

SMILES: CC[C@H](C)[C@@H]1NC(=O)[C@H](CCCNC(=N)N)NC(=O)[C@H](CC(=O)O)NC(=O)[C@H]([C@@H](C)CC)NC(=O)[C@H](CO)NC(=O)CNC(=O)[C@H]([C@@H](C)O)NC(=O)C(c2ccccc2)NC(=O)[C@@H](NC(=O)[C@H](CO)NC(=O)[C@H](CO)NC(=O)[C@H](CCCNC(=N)N)NC(=O)[C@H](CCCNC(=N)N)NC(=O)[C@H](CC(C)C)NC(=O)[C@@H](N)CO)CSSC[C@@H](C(=O)N[C@@H](CC(N)=O)C(=O)N[C@@H](CO)C(=O)N[C@@H](Cc2ccccc2)C(=O)N[C@@H](CCCNC(=N)N)C(=O)N[C@@H](Cc2ccc(O)cc2)C(=O)O)NC(=O)CNC(=O)[C@H](CC(C)C)NC(=O)CNC(=O)[C@H](CO)NC(=O)[C@H](CCC(N)=O)NC(=O)[C@H](C)NC(=O)[C@H](CCCNC(=N)N)NC1=O (some centres unmarked) [ANF100-1] (H-SLRRSSC[ξPhg]TGSIDRIRAQSGLGCNSFRY-OH; disulfide 7-23)
IC50 (hNPR-C; Table I, read-out: Binding Affinity IC50 (pM) hNPR-C): 3.23e+06 pM | IC50 (hNPR-A; Table I, read-out: Binding Affinity IC50 (pM) hNPR-A): 187 pM

Now from value to compound:

half-life at 32 nM/ml ([1]; human): 9.52 h
SMILES: CC[C@H](C)[C@@H]1NC(=O)[C@H](CCCNC(=N)N)NC(=O)[C@H](CC(=O)O)NC(=O)[C@H]([C@@H](C)CC)NC(=O)[C@H](CC(=O)O)NC(=O)CNC(=O)[C@H](CCCNC(=N)N)NC(=O)[C@H](Cc2ccccc2)NC(=O)[C@@H](NC(=O)[C@H](CO)NC(=O)[C@H](CO)NC(=O)[C@H](CCCNC(=N)N)NC(=O)[C@H](CCCNC(=N)N)NC(=O)[C@H](CC(C)C)NC(=O)[C@@H](N)CO)CSSC[C@@H](C(=O)N[C@@H](CC(N)=O)C(=O)N[C@@H](CO)C(=O)N[C@@H](Cc2ccccc2)C(=O)N[C@@H](CCCNC(=N)N)C(=O)N[C@@H](Cc2ccc(O)cc2)C(=O)O)NC(=O)CNC(=O)[C@H](CC(C)C)NC(=O)CNC(=O)[C@H](CO)NC(=O)[C@H](CCC(N)=O)NC(=O)[C@H](C)NC(=O)[C@H](CCCNC(=N)N)NC1=O [ANF28] (H-SLRRSSCFRGDIDRIRAQSGLGCNSFRY-OH; disulfide 7-23)

half-life at 32 nM/ml [2]: 1.77 h
SMILES: CC[C@H](C)[C@@H]1NC(=O)[C@H](CCCNC(=N)N)NC(=O)[C@H](CC(=O)O)NC(=O)[C@H]([C@@H](C)CC)NC(=O)[C@H](CC(=O)O)NC(=O)CNC(=O)[C@@H](C)NC(=O)[C@H](Cc2ccccc2)NC(=O)CCSSC[C@@H](C(=O)N[C@@H](CC(N)=O)C(=O)N[C@@H](CO)C(=O)N[C@@H](Cc2ccccc2)C(=O)N[C@@H](CCCNC(=N)N)C(=O)N[C@@H](Cc2ccc(O)cc2)C(=O)O)NC(=O)CNC(=O)[C@H](CC(C)C)NC(=O)CNC(=O)[C@H](CO)NC(=O)[C@H](CCC(N)=O)NC(=O)[C@H](C)NC(=O)[C@H](CCCNC(=N)N)NC1=O [ANF92] ([Mpa]F[dA]GDIDRIRAQSGLGCNSFRY-OH; disulfide 1-17)
